Consider 2 molecules from patent publication US20160038505A1, “METHODS AND COMPOSITIONS FOR TREATING IMPULSE CONTROL DISORDER, ANXIETY-RELATED DISORDERS, VIOLENCE AND/OR ANGER, OR REGULATING FOOD INTAKE” (priority 2014, published 2016).

Bounds are passed on as bounds.

The nature of data set [1]: Pharmacokinetics of noribogaine in healthy male volunteers (plasma, urine, LCMSMS). The following applies: for AUC0-216 / AUC0-∞ / Cmax / Tmax / t1/2: mean (SD), n = 6.
A short description of data set [2]: Human pharmacokinetic study, single oral tablet, fasting healthy volunteers (serum). Format: in vivo. The following applies: 3 mg, 10 mg, 30 mg or 60 mg single oral tablet. How it is done: In double blind studies, fasting healthy volunteers (6 per cohort) were treated once orally with a tablet of noribogaine HCl. In escalating cohorts, the volunteers received 3 mg, 10 mg, 30 mg or 60 mg noribogaine.

A further data set relates to Sprague-Dawley rats. Description: Fourteen day repeat dose toxicity in rats. In kind it is in vivo, rat. The procedure: This study was conducted to evaluate the toxicity profile of noribogaine-HCl following oral (gavage) administration to the rat for 14 days following Table 2 below:
Male and female Sprague-Dawley rats, 10/sex/group, were administered 0, 25, 50 or 100 mg/kg noribogaine HCl daily by single oral gavage for 14 days. An additional 5 rats/sex/group in the 0 (control) and 100 mg/kg groups were retained for a 28 day recovery period during which no drug was administered. Six rats/sex/group (3 rats/sex controls) were similarly dosed and sampled on study days 1 and 14 for analysis of noribogaine-HCl concentrations in the blood.

For another data set, the system named is dogs. As to the kind of experiment: Fourteen day repeat dose toxicity in dogs. In kind it is in vivo, dog. How it is done:
The objective of this study was to determine the toxicity profile of noribogaine HCl given following oral (gavage) administration to dogs for 14 days according to the following Table 3 below:
Noribogaine HCl was administered to groups of 4 male and 4 female dogs by single oral gavage daily for 14 days at doses of 0, 0.5, 1.0 and 5.0 mg/kg/day. An additional group of 4 male and 4 female dogs received either the vehicle control or 5.0 mg/kg/day for 14 days and were held for an additional 28 days after cessation of dosing to assess recovery from any potential drug-induced changes. The study was conducted under GLP guidelines and included comprehensive examinations of clinical signs, body weight, clinical pathology parameters, ophthalmologic examinations, ECG recordings and analyses of plasma for bioanalytical measurement of drug levels at appropriate intervals during the study. At the termination of the dosing phase and at the termination of the recovery phase, all dogs were subjected to a complete post-mortem examination including gross examination of major organs and histologic examination of an extensive list of tissues. Additional sections of brain were obtained from cerebrum, cerebellus, brain stem and spinal cord and examined histologically to evaluate potential effects on brain histopathology. In addition, these sections were examined with immunohistochemical stains for GFAP for evidence of gliosis and Calbindin for a more comprehensive examination of cerebellar Purkinje cells.

A further data set concerns Sprague-Dawley rat. As to the kind of experiment: Single dose toxicity in rats. Format: in vivo. The procedure:
The objective of this study was to determine the toxicity and toxicokinetic profile of noribogaine HCl following a single oral (gavage) administration in the Sprague-Dawley rat. A single dose of 100, 300 and 800 mg/kg (achieved with doses of 400 mg/kg 3 h+/−30 min apart because of the limitations of maximum dose formulation concentration). Five male rats/group were used. […] Hypoactivity, vocalization, chewing movements, changes in respiration/posture, salivation, stimuli sensitivity, tremors, twitches and penile erection occurred prior to death. […] The NOAEL was determined to be 100 mg/kg.

[3] abbreviates: glucuronide in plasma after 30 mg noribogaine.
The mark [4] stands for this setting: glucuronide in plasma after 60 mg noribogaine.

In the case of `CC[C@H]1C[C@@H]2C[C@H]3c4[nH]c5ccc(OC6OC(C(=O)O)C(O)C(O)C6O)cc5c4CCN(C2)[C@@H]13` (stereo partly drawn) [Noribogaine glucuronide, noribogaine glucuronide], in data set [1] (30 mg and 60 mg noribogaine dose groups, plasma), the “time by which noribogaine glucuronide was detected in all subjects” value is no more than 0.75 h. Also, the “proportion of noribogaine glucuronide Cmax and AUC relative to noribogaine” value in data set [1] (both dose groups (30 mg, 60 mg)) is recorded as 3-4%. In data set [1] (setting [3]), the AUC0-216 is reported as 25.7 (9.1) ng · hr/ml, the “AUC0-∞” value is listed as 25.8 (9.3) ng · hr/ml, the Cmax was 1.8 (0.6) ng/ml and the Tmax is 3.0 (0.6) hr. The t1/2 in data set [1] (setting [3]) is on record as 20.6 (4.9) hr. In data set [1] (setting [4]), the AUC0-216 is on record as 65.0 (21.5) ng · hr/ml, the “AUC0-∞” value was 67.1 (21.9) ng · hr/ml, the Cmax is given as 4.1 (1.2) ng/ml and the Tmax is reported as 3.8 (1.2) hr. In data set [1] (setting [4]), the t1/2 was 23.1 (3.0) hr. Besides, the “time of peak concentrations after noribogaine dosing” value in data set [1] (glucuronide, 30 mg and 60 mg dose groups, plasma) is 3 to 4 h. Further, the mean half-life in data set [1] (plasma noribogaine glucuronide, 30 mg and 60 mg dose groups) lay within 21 to 23 h.

Consider `CC[C@@H]1C[C@H]2CC3c4[nH]c5ccc(O)cc5c4CCN(C2)C31.Cl` [noribogaine HCl], for which, in data set [2], the “adverse effects in the trial” value is given as “no clinically relevant adverse effects”. Besides, the body weight change with Sprague-Dawley rats (100 mg/kg, females) is listed as −2.6%; with Sprague-Dawley rats (100 mg/kg, males), −5.5%. For the same molecule, in the data set on Sprague-Dawley rats (100 mg/kg, males and females), the food consumption change is −4.7%. Further, the “effects on mortality, clinical signs, ophthalmoscopy, hematology, coagulation, clinical chemistry, urinalysis, gross necropsy, histopathology” value with Sprague-Dawley rats (25, 50 or 100 mg/kg daily oral gavage for 14 days) is on record as “no test article-related effects”. The “brain sections stained for GFAP or Calbindin” value in the data set on Sprague-Dawley rats (14 days) is on record as “No treatment-related differences in the brain”. Also, the NOAEL (usually the highest tested level that showed no adverse finding) in the data set on Sprague-Dawley rats (14 days oral, highest dose tested) worked out at 100 mg/kg; in the data set on dogs (14 days oral, based on lacrimal gland changes), 1 mg/kg/day; in the data set on Sprague-Dawley rat (single oral dose, male rats), 100 mg/kg. Also, in the data set on Sprague-Dawley rats (mid- and high dose groups, considered incidental), the liver weight result is “Minor increases in liver weight”. For the same molecule, the “lacrimal gland changes (target tissue)” value in the data set with dogs (5 mg/kg/day for 14 days) is “slight to moderate atrophy and degeneration of the acinar cells”. Besides, the “lacrimal gland change after recovery” value in the data set on dogs (5 mg/kg/day, 28 days off drug) was “clear evidence of regeneration of this lacrimal gland change”. Besides, the “clinical observations, body weights, clinical pathology, ophthalmology, ECG, gross lesions” value in the data set on dogs (0.5, 1.0 and 5.0 mg/kg/day oral for 14 days, dosing or recovery phase) was “No evidence of adverse effect”. Besides, the clinical signs entry in the data set with Sprague-Dawley rat (100 mg/kg single oral) is “did not show any treatment related signs”; with Sprague-Dawley rat (300 mg/kg single oral, persisted until Day 2 in 3/5 rats) it was “Hypoactivity, vocalization, salivation, stimuli sensitivity, loss of limb function and lying on the cage floor”. Besides, in the data set with Sprague-Dawley rat (800 mg/kg oral gavage (2 x 400 mg/kg 3 h apart), male rats), the mortality entry is “Mortality occurred in all male rats”.
